In the supplement of paper PMC11061612:

What was measured:
Test in all cases: combination Emax (second highest fraction inhibited in the dose matrix, 72 h); higher = more inhibition; extreme values may be limits of the assay
KS-1 (Glioblastoma) = test system: KS-1 (Glioblastoma)
Method in brief: (§1)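 After 24 hours at 37°C and 5% CO2 in 1536-well plates, cells in DMEM/F12 or RPMI plus 10% FBS received two-drug dose matrices for 72 hours. Viability came from CellTiter-Glo 2.0 luminescence and was scaled as inhibition, anchored at 0 by vehicle wells and at 1 by blank wells. Combination Emax is taken as the second-highest inhibition in the matrix, and Bliss excess as the observed combination effect less EA + EB − EA·EB, with EA and EB the single-agent effects.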

[1] = test system: SNU-16 (Gastric Carcinoma)
Method in brief: as §1

[2] = test system: SW1710 (Bladder Carcinoma)
Method in brief: as §1

[3] = test system: YAPC (Pancreatic Carcinoma)
Method in brief: as §1

[4] = test system: ESS-1 (Other Solid Carcinomas)
Method in brief: as §1

[5] = test system: KYAE-1 (Esophageal Adenocarcinoma)
Method in brief: as §1

[6] = test system: LNZTA3WT4 (Low Grade Glioma)
Method in brief: as §1

MPP-89 (Mesothelioma) = test system: MPP-89 (Mesothelioma)
Method in brief: as §1

[7] = test system: NUGC-4 (Gastric Carcinoma)
Method in brief: as §1

[8] = test system: BFTC-909 (Kidney Carcinoma)
Method in brief: as §1

[9] = test system: ALL-PO (B-Lymphoblastic Leukemia)
Method in brief: as §1

[10] = test system: NCI-H209 (Small Cell Lung Carcinoma)
Method in brief: as §1

[11] = test system: KMRC-20 (Kidney Carcinoma)
Method in brief: as §1

[12] = test system: SW1573 (Lung Adenocarcinoma)
Method in brief: as §1

[13] = test system: NCI-H1568 (Lung Adenocarcinoma)
Method in brief: as §1

[14] = test system: OE21 (Esophageal Squamous Cell Carcinoma)
Method in brief: as §1

[15] = test system: FTC-133 (Thyroid Gland Carcinoma)
Method in brief: as §1

[16] = test system: CAL-33 (Oral Cavity Carcinoma)
Method in brief: as §1

BE2-M17 (Neuroblastoma) = test system: BE2-M17 (Neuroblastoma)
Method in brief: as §1

[17] = test system: LS-123 (Colorectal Carcinoma)
Method in brief: as §1

| Compound | combination Emax (KS-1 (Glioblastoma)) | combination Emax [1] | combination Emax [2] | combination Emax [3] | combination Emax [4] | combination Emax [5] | combination Emax [6] | combination Emax (MPP-89 (Mesothelioma)) | combination Emax [7] | combination Emax [8] | combination Emax [9] | combination Emax [10] | combination Emax [11] | combination Emax [12] | combination Emax [13] | combination Emax [14] | combination Emax [15] | combination Emax [16] | combination Emax (BE2-M17 (Neuroblastoma)) | combination Emax [17] |
| --- | --- | --- | --- | --- | --- | --- | --- | --- | --- | --- | --- | --- | --- | --- | --- | --- | --- | --- | --- | --- |
| CN(CCO)CC[C@H](CSc1ccccc1)Nc1ccc(S(=O)(=O)NC(=O)c2ccc(N3CCC([C@@H](O)c4ccccc4-c4ccc(Cl)cc4)CC3)cc2)cc1S(=O)(=O)C(F)(F)F [AZD4320] + CC(=O)O[C@H]1C(=O)[C@@]2(C)[C@H]([C@H](OC(=O)c3ccccc3)[C@]3(O)C[C@H](OC(=O)[C@H](O)[C@@H](NC(=O)c4ccccc4)c4ccccc4)C(C)=C1C3(C)C)[C@]1(OC(C)=O)CO[C@@H]1C[C@@H]2O [Paclitaxel] (first compound max 1 µM, 7x7, partner max 3 µM) | 0.937 | 1 | 0.98 | 0.395 | 1 | 0.587 | 0.967 | 0.983 | – | – | – | – | – | – | – | – | – | – | – | – |
| CN(CCO)CC[C@H](CSc1ccccc1)Nc1ccc(S(=O)(=O)NC(=O)c2ccc(N3CCC([C@@H](O)c4ccccc4-c4ccc(Cl)cc4)CC3)cc2)cc1S(=O)(=O)C(F)(F)F [AZD4320] + CCN(CCO)CCCOc1ccc2c(Nc3cc(CC(=O)Nc4cccc(F)c4)[nH]n3)ncnc2c1 [AZD2811] (first compound max 1 µM, 7x7, partner max 1 µM) | 0.464 | 0.747 | 0.154 | 0.0932 | 0.923 | 0.496 | 0.122 | 0.526 | 0.215 | 0.514 | 1 | 1 | 0.256 | 0.62 | 0.248 | 0.111 | 0.681 | 0.853 | 0.64 | – |
| CN(CCO)CC[C@H](CSc1ccccc1)Nc1ccc(S(=O)(=O)NC(=O)c2ccc(N3CCC([C@@H](O)c4ccccc4-c4ccc(Cl)cc4)CC3)cc2)cc1S(=O)(=O)C(F)(F)F [AZD4320] + C[C@@H]1COCCN1C2=NC(=NC(=C2)C3(CC3)[S@](=N)(=O)C)C4=C5C=CNC5=NC=C4 [AZD6738] (first compound max 1 µM, 7x7, partner max 10 µM) | 0.68 | 0.994 | 0.705 | 0.251 | 0.992 | 0.51 | 0.804 | 0.794 | 0.739 | 0.997 | 1 | 1 | 0.721 | 0.555 | 0.522 | 0.84 | 0.947 | 0.964 | 0.93 | – |
| CN(CCO)CC[C@H](CSc1ccccc1)Nc1ccc(S(=O)(=O)NC(=O)c2ccc(N3CCC([C@@H](O)c4ccccc4-c4ccc(Cl)cc4)CC3)cc2)cc1S(=O)(=O)C(F)(F)F [AZD4320] + C[C@@H](Nc1cc(F)cc(F)c1)c1cc(C(=O)N(C)C)cc2c(=O)cc(N3CCOCC3)oc12 [AZD8186] (first compound max 1 µM, 7x7, partner max 3 µM) | 0.486 | 0.658 | 0.373 | 0.237 | 0.825 | 0.387 | 0.247 | 0.494 | 0.564 | 0.595 | 1 | 1 | 0.381 | 0.577 | 0.344 | 0.216 | 0.803 | 0.714 | 0.722 | – |
| CN(CCO)CC[C@H](CSc1ccccc1)Nc1ccc(S(=O)(=O)NC(=O)c2ccc(N3CCC([C@@H](O)c4ccccc4-c4ccc(Cl)cc4)CC3)cc2)cc1S(=O)(=O)C(F)(F)F [AZD4320] + Cc1cc2ncnn2cc1Nc1ncc2c(n1)n(C1CCOCC1)c(=O)n2C [AZD7648] (first compound max 1 µM, 7x7, partner max 10 µM) | 0.319 | 0.3 | 0.131 | 0.103 | 0.502 | 0.279 | 0.132 | 0.281 | 0.329 | 0.246 | 0.992 | 1 | 0.157 | 0.104 | 0.22 | 0.17 | 0.491 | 0.363 | 0.369 | – |
| CN(CCO)CC[C@H](CSc1ccccc1)Nc1ccc(S(=O)(=O)NC(=O)c2ccc(N3CCC([C@@H](O)c4ccccc4-c4ccc(Cl)cc4)CC3)cc2)cc1S(=O)(=O)C(F)(F)F [AZD4320] + Nc1ccn([C@@H]2O[C@H](CO)[C@@H](O)C2(F)F)c(=O)n1 [Gemcitabine] (first compound max 1 µM, 7x7, partner max 0.3 µM) | 0.304 | 0.934 | 0.51 | 0.535 | 0.998 | 0.32 | 0.608 | 0.78 | – | – | – | – | – | – | – | – | – | – | – | – |
| COc1nnc2ccc(N3CCC(c4ccc(OCCN5CCN(C)C(=O)[C@H]5C)cc4)CC3)nn12 [AZD5153] + CN(CC[C@H](CSC1=CC=CC=C1)NC2=C(C=C(C=C2)S(=O)(=O)NC(=O)C3=CC=C(C=C3)N4CCC(CC4)[C@H](C5=CC=CC=C5C6=CC=C(C=C6)Cl)O)S(=O)(=O)C(F)(F)F)CCO [AZD4320] (first compound max 1 µM, 7x7, partner max 1 µM) | – | – | – | – | – | – | – | – | 0.634 | 0.71 | 1 | 1 | 0.545 | 0.61 | 0.266 | 0.739 | 0.909 | 0.343 | 0.915 | – |
| Cc1cc2ncnn2cc1Nc1ncc2c(n1)n(C1CCOCC1)c(=O)n2C [AZD7648] + COc1cc([C@@H]2c3cc4c(cc3[C@@H](O[C@@H]3O[C@@H]5CO[C@@H](C)O[C@H]5[C@H](O)[C@H]3O)[C@H]3COC(=O)[C@H]23)OCO4)cc(OC)c1O [Etoposide] (first compound max 10 µM, 7x7, partner max 10 µM) | 0.431 | 0.794 | 0.301 | 0.531 | 1 | 0.547 | 0.794 | 0.604 | – | – | – | – | – | – | – | – | – | – | – | 0.884 |
| CC(=O)c1c(C)c2cnc(Nc3ccc(N4CCNCC4)cn3)nc2n(C2CCCC2)c1=O [Palbociclib] + CN(CC[C@H](CSC1=CC=CC=C1)NC2=C(C=C(C=C2)S(=O)(=O)NC(=O)C3=CC=C(C=C3)N4CCC(CC4)[C@H](C5=CC=CC=C5C6=CC=C(C=C6)Cl)O)S(=O)(=O)C(F)(F)F)CCO [AZD4320] (first compound max 10 µM, 7x7, partner max 1 µM) | – | – | – | – | – | – | – | – | 0.411 | 0.55 | 1 | 1 | 0.25 | 0.255 | 0.515 | 0.663 | 0.582 | 0.364 | 0.756 | – |
| N#Cc1cnc(Nc2cc(NC[C@H]3CNCCO3)c(C(F)(F)F)cn2)cn1 [SRA737] + C=CCn1c(=O)c2cnc(Nc3ccc(N4CCN(C)CC4)cc3)nc2n1-c1cccc(C(C)(C)O)n1 [AZD1775] (first compound max 10 µM, partner max 1 µM) | 0.499 | 0.995 | 0.644 | 0.495 | 1 | 0.114 | 0.91 | 0.661 | – | – | – | – | – | – | – | – | – | – | – | 0.722 |
| N#Cc1cnc(Nc2cc(NC[C@H]3CNCCO3)c(C(F)(F)F)cn2)cn1 [SRA737] + CCc1c2c(nc3ccc(O)cc13)-c1cc3c(c(=O)n1C2)COC(=O)[C@]3(O)CC [SN-38] (first compound max 10 µM, 7x7, partner max 0.3 µM) | 0.458 | 0.995 | 0.676 | 0.696 | 1 | 0.313 | 0.84 | 0.73 | – | – | – | – | – | – | – | – | – | – | – | 0.773 |
| N#Cc1cnc(Nc2cc(NC[C@H]3CNCCO3)c(C(F)(F)F)cn2)cn1 [SRA737] + O=c1[nH]cc(F)c(=O)[nH]1 [5-Fluorouracil] (first compound max 10 µM, 7x7, partner max 20 µM) | 0.281 | 0.961 | 0.217 | 0.406 | 0.927 | 0.23 | 0.815 | 0.424 | – | – | – | – | – | – | – | – | – | – | – | 0.414 |
| C[C@@H](c1ccc2nccn2c1)n1nnc2ncc(-c3cnn(C)c3)nc21 [Savolitinib] + CN(CC[C@H](CSC1=CC=CC=C1)NC2=C(C=C(C=C2)S(=O)(=O)NC(=O)C3=CC=C(C=C3)N4CCC(CC4)[C@H](C5=CC=CC=C5C6=CC=C(C=C6)Cl)O)S(=O)(=O)C(F)(F)F)CCO [AZD4320] (first compound max 1 µM, 7x7, partner max 1 µM) | – | – | – | – | – | – | – | – | 0.262 | 0.29 | 0.989 | 1 | 0.184 | 0.239 | 0.256 | 0.101 | 0.546 | 0.222 | 0.305 | – |
